Results taken from PMC6106931 (Alzheimer's Research & Therapy, 2018).

Assay: Clinical safety, Study ALZ1005
Assay type: in vivo, human
[1] = MCI due to AD, JNJ-54861911 total, N=20
[2] = both atabecestat groups, 3 of 31 patients
[3] = preclinical AD, JNJ-54861911 total, N=11

Description: Safety and tolerability were assessed during the study by recording adverse events (AEs), clinically significant abnormalities, clinical laboratory tests, ECG, and vital signs and by performing physical, neurological, and MRI examinations. All enrolled participants were included in the safety analysis population.

C[C@@]1(c2cc(NC(=O)c3ccc(C#N)cn3)ccc2F)C=CSC(N)=N1 [atabecestat]
TEAE: Psoriasis [1]: ^0 n (%)
TEAE: Psychiatric disorders [1]: ^2 (10.0) n (%)
TEAE: Renal and urinary disorders [1]: ^1 (5.0) n (%)
TEAE: Renal colic [1]: ^1 (5.0) n (%)
TEAE: Reproductive system and breast disorders [1]: ^1 (5.0) n (%)
TEAE: Skin and subcutaneous tissue disorders [1]: ^2 (10.0) n (%)
TEAE: Somnolence [1]: ^0 n (%)
TEAE: Syncope [1]: ^0 n (%)
TEAE: Urticaria [1]: ^0 n (%)
TEAE: Vascular disorders [1]: ^0 n (%)
TEAE: Vulvovaginal candidiasis [1]: ^1 (5.0) n (%)
TEAE: Vulvovaginal pruritus [1]: ^1 (5.0) n (%)
TEAE accidental overdose (both atabecestat groups, 2 patients): 6.5%
TEAE psychiatric disorders [2]: 9.7%
TEAE skin and subcutaneous tissue disorders [2]: 9.7%
TEAE post-lumbar puncture syndrome (both atabecestat groups, 4 patients): 12.9%
TEAE SOC injury, poisoning, and procedural complications (both atabecestat groups, 5 of 31 patients): 16.1%
changes from baseline in clinical laboratory analytes, liver function tests, vital signs, neurologic and physical examinations (both studies): no clinically significant trends
deaths or TEAEs leading to discontinuation (both studies): no deaths or TEAEs leading to discontinuation
ECG parameters, mean and median changes over time from predose (early AD population): no treatment- or dose-related changes
Subjects with any TEAE (preclinical AD, 10 mg, N=5): ^1 (20.0%) n (%)
TEAE: Accidental overdose (preclinical AD, 10 mg, N=5): ^0 n (%)
TEAE: Anxiety (preclinical AD, 10 mg, N=5): ^0 n (%)
TEAE: Bladder cancer (preclinical AD, 10 mg, N=5): ^0 n (%)
TEAE: Conjunctivitis (preclinical AD, 10 mg, N=5): ^0 n (%)
TEAE: Dementia Alzheimer’s type (preclinical AD, 10 mg, N=5): ^0 n (%)
TEAE: Depressed mood (preclinical AD, 10 mg, N=5): ^0 n (%)
TEAE: Dermatitis allergic (preclinical AD, 10 mg, N=5): ^0 n (%)
TEAE: Dizziness (preclinical AD, 10 mg, N=5): ^0 n (%)
TEAE: Eczema vesicular (preclinical AD, 10 mg, N=5): ^0 n (%)
TEAE: Fatigue (preclinical AD, 10 mg, N=5): ^0 n (%)
TEAE: Gastrointestinal disorders (preclinical AD, 10 mg, N=5): ^0 n (%)
TEAE: General disorders and administration site conditions (preclinical AD, 10 mg, N=5): ^0 n (%)
TEAE: Headache (preclinical AD, 10 mg, N=5): ^0 n (%)
TEAE: Hypertension (preclinical AD, 10 mg, N=5): ^1 (20.^0) n (%)
TEAE: Infections and infestations (preclinical AD, 10 mg, N=5): ^0 n (%)
TEAE: Injury, poisoning and procedural complications (preclinical AD, 10 mg, N=5): ^0 n (%)
TEAE: Insomnia (preclinical AD, 10 mg, N=5): ^0 n (%)
TEAE: Irritability (preclinical AD, 10 mg, N=5): ^0 n (%)
TEAE: Musculoskeletal and connective tissue disorders (preclinical AD, 10 mg, N=5): ^0 n (%)
TEAE: Nasopharyngitis (preclinical AD, 10 mg, N=5): ^0 n (%)
TEAE: Nausea (preclinical AD, 10 mg, N=5): ^0 n (%)
TEAE: Neck pain (preclinical AD, 10 mg, N=5): ^0 n (%)
TEAE: Neoplasms benign, malignant and unspecified (preclinical AD, 10 mg, N=5): ^0 n (%)
TEAE: Nervous system disorders (preclinical AD, 10 mg, N=5): ^0 n (%)
TEAE: Post lumbar puncture syndrome (preclinical AD, 10 mg, N=5): ^0 n (%)
TEAE: Psoriasis (preclinical AD, 10 mg, N=5): ^0 n (%)
TEAE: Psychiatric disorders (preclinical AD, 10 mg, N=5): ^0 n (%)
TEAE: Renal and urinary disorders (preclinical AD, 10 mg, N=5): ^0 n (%)
TEAE: Renal colic (preclinical AD, 10 mg, N=5): ^0 n (%)
TEAE: Reproductive system and breast disorders (preclinical AD, 10 mg, N=5): ^0 n (%)
TEAE: Skin and subcutaneous tissue disorders (preclinical AD, 10 mg, N=5): ^0 n (%)
TEAE: Somnolence (preclinical AD, 10 mg, N=5): ^0 n (%)
TEAE: Syncope (preclinical AD, 10 mg, N=5): ^0 n (%)
TEAE: Urticaria (preclinical AD, 10 mg, N=5): ^0 n (%)
TEAE: Vascular disorders (preclinical AD, 10 mg, N=5): ^1 (20.0) n (%)
TEAE: Vulvovaginal candidiasis (preclinical AD, 10 mg, N=5): ^0 n (%)
TEAE: Vulvovaginal pruritus (preclinical AD, 10 mg, N=5): ^0 n (%)
Subjects with any TEAE (preclinical AD, 50 mg, N=6): ^2 (33.3) n (%)
TEAE: Accidental overdose (preclinical AD, 50 mg, N=6): ^0 n (%)
TEAE: Anxiety (preclinical AD, 50 mg, N=6): ^0 n (%)
TEAE: Bladder cancer (preclinical AD, 50 mg, N=6): ^0 n (%)
TEAE: Conjunctivitis (preclinical AD, 50 mg, N=6): ^0 n (%)
TEAE: Dementia Alzheimer’s type (preclinical AD, 50 mg, N=6): ^0 n (%)
TEAE: Depressed mood (preclinical AD, 50 mg, N=6): ^0 n (%)
TEAE: Dermatitis allergic (preclinical AD, 50 mg, N=6): ^0 n (%)
TEAE: Dizziness (preclinical AD, 50 mg, N=6): ^0 n (%)
TEAE: Eczema vesicular (preclinical AD, 50 mg, N=6): ^0 n (%)
TEAE: Fatigue (preclinical AD, 50 mg, N=6): ^1 (16.7^) n (%)
TEAE: Gastrointestinal disorders (preclinical AD, 50 mg, N=6): ^0 n (%)
TEAE: General disorders and administration site conditions (preclinical AD, 50 mg, N=6): ^1 (16.7) n (%)
TEAE: Headache (preclinical AD, 50 mg, N=6): ^0 n (%)
TEAE: Hypertension (preclinical AD, 50 mg, N=6): ^0 n (%)
TEAE: Infections and infestations (preclinical AD, 50 mg, N=6): ^0 n (%)
TEAE: Injury, poisoning and procedural complications (preclinical AD, 50 mg, N=6): ^1 (16.7) n (%)
TEAE: Insomnia (preclinical AD, 50 mg, N=6): ^1 (16.^7) n (%)
TEAE: Irritability (preclinical AD, 50 mg, N=6): ^0 n (%)
TEAE: Musculoskeletal and connective tissue disorders (preclinical AD, 50 mg, N=6): ^0 n (%)
TEAE: Nasopharyngitis (preclinical AD, 50 mg, N=6): ^0 n (%)
TEAE: Nausea (preclinical AD, 50 mg, N=6): ^0 n (%)
TEAE: Neck pain (preclinical AD, 50 mg, N=6): ^0 n (%)
TEAE: Neoplasms benign, malignant and unspecified (preclinical AD, 50 mg, N=6): ^0 n (%)
TEAE: Nervous system disorders (preclinical AD, 50 mg, N=6): ^0 n (%)
TEAE: Post lumbar puncture syndrome (preclinical AD, 50 mg, N=6): ^1 (16.7^) n (%)
TEAE: Psoriasis (preclinical AD, 50 mg, N=6): ^1 (16.^7) n (%)
TEAE: Psychiatric disorders (preclinical AD, 50 mg, N=6): ^1 (16.^7) n (%)
TEAE: Renal and urinary disorders (preclinical AD, 50 mg, N=6): ^0 n (%)
TEAE: Renal colic (preclinical AD, 50 mg, N=6): ^0 n (%)
TEAE: Reproductive system and breast disorders (preclinical AD, 50 mg, N=6): ^0 n (%)
TEAE: Skin and subcutaneous tissue disorders (preclinical AD, 50 mg, N=6): ^1 (16.^7) n (%)
TEAE: Somnolence (preclinical AD, 50 mg, N=6): ^0 n (%)
TEAE: Syncope (preclinical AD, 50 mg, N=6): ^0 n (%)
TEAE: Urticaria (preclinical AD, 50 mg, N=6): ^1 (16.^7) n (%)
TEAE: Vascular disorders (preclinical AD, 50 mg, N=6): ^0 n (%)
TEAE: Vulvovaginal candidiasis (preclinical AD, 50 mg, N=6): ^0 n (%)
TEAE: Vulvovaginal pruritus (preclinical AD, 50 mg, N=6): ^0 n (%)
Subjects with any TEAE [3]: ^3 (27.3) n (%)
TEAE: Fatigue [3]: ^1 (9.1) n (%)
TEAE: General disorders and administration site conditions [3]: ^1 (9.1) n (%)
TEAE: Hypertension [3]: ^1 (9.1) n (%)
TEAE: Injury, poisoning and procedural complications [3]: ^1 (9.1) n (%)
TEAE: Insomnia [3]: ^1 (9.1) n (%)
TEAE: Nervous system disorders [3]: ^0 n (%)
TEAE: Post lumbar puncture syndrome [3]: ^1 (9.1) n (%)
TEAE: Psoriasis [3]: ^1 (9.1) n (%)
TEAE: Psychiatric disorders [3]: ^1 (9.1) n (%)
TEAE: Skin and subcutaneous tissue disorders [3]: ^1 (9.1) n (%)
TEAE: Somnolence [3]: ^0 n (%)
TEAE: Urticaria [3]: ^1 (9.1) n (%)
TEAE: Vascular disorders [3]: ^1 (9.1) n (%)
